In the supplement of paper PMC12463676, “Small-molecule dissolution of stress granules by redox modulation benefits ALS models” (Nature Chemical Biology, 2025):

Experiments:
[1] = compound: O=[As]([O-])(O)O.[K+] [potassium arsenate]; assay: thermal stability z-score vs DMSO; higher = more thermally stabilized by treatment; settings: HeLa; arsenate concentration 1 mM
Experimental: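 Cellular thermal proteome profiling in HeLa cells treated with 1 mM arsenate for 1 h (DMSO pretreatment), heated to ten temperatures (37-66.3 °C). Soluble protein was quantified by TMT mass spectrometry relative to DMSO controls; the thermal stability score was transformed to a z-score; mean of n = 3 experiments.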

[2] = compound: NC(=O)CCCCC1CCSS1 [lipoamide]; assay: as above; settings: HeLa, lipoamide concentration 100 µM
Experimental: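 Cellular thermal proteome profiling in HeLa cells. Cells were treated with 100 µM lipoamide for 1 h, with or without 1 mM arsenate for a further 1 h, then heated to ten temperatures (37-66.3 °C), and soluble protein was quantified by TMT mass spectrometry relative to 0.1% DMSO controls. The thermal stability score (sum of log2 fold changes minus the abundance score) was transformed to a z-score; mean of n = 3 experiments.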

[3] = arsenate co-treatment: 1 mM arsenate 1 h
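Further: each temperature applied for 3 min, abundance score taken as mean log2 fold change at the two lowest temperatures, z-score obtained by mean subtraction and division by SD.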

Chain of UniProt Q9P2X3 (Q9P2X3 whole entry): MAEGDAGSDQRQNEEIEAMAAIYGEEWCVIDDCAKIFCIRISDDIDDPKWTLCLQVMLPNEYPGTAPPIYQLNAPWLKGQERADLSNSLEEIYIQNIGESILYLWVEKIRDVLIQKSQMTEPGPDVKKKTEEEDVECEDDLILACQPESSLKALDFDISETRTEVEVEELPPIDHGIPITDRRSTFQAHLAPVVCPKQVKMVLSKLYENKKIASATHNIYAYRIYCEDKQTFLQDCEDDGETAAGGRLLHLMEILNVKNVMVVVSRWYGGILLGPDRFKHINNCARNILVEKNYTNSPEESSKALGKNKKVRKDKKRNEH
Chain of UniProt Q9NX62 (Q9NX62 whole entry): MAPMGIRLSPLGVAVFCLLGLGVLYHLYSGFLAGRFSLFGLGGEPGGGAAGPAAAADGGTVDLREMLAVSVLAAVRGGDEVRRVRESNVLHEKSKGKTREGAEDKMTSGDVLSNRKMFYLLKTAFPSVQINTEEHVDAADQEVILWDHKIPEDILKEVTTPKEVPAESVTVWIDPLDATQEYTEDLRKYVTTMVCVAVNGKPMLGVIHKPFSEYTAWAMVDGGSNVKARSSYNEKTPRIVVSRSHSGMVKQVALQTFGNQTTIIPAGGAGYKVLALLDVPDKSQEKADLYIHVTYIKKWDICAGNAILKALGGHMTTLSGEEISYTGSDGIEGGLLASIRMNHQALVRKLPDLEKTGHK
Chain of UniProt Q96HW7 (Q96HW7 whole entry): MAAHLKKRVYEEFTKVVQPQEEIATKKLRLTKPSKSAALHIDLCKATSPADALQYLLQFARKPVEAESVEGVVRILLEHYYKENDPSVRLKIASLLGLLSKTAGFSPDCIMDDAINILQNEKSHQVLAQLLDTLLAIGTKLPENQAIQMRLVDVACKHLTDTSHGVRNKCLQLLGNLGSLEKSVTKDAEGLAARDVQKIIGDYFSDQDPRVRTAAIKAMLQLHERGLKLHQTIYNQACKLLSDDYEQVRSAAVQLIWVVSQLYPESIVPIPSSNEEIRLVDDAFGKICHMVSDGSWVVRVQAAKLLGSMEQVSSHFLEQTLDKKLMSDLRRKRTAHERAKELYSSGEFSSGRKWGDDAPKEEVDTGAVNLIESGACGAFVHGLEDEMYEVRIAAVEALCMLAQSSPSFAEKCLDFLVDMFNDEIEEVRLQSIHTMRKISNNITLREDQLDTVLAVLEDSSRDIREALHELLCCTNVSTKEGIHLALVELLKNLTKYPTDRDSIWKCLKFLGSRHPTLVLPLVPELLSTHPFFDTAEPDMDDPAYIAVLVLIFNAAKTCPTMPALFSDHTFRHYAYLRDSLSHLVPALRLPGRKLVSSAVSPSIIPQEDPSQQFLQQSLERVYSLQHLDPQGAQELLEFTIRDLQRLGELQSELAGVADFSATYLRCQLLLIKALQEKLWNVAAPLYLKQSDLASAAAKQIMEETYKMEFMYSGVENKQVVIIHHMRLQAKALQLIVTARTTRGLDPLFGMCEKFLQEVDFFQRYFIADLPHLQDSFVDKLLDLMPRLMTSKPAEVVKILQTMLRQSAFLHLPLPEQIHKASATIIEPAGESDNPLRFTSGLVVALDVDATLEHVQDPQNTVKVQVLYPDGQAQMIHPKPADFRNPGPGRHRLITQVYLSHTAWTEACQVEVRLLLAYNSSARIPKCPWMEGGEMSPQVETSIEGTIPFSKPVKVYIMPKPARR
Chain of UniProt Q9Y2H2 (Q9Y2H2 whole entry): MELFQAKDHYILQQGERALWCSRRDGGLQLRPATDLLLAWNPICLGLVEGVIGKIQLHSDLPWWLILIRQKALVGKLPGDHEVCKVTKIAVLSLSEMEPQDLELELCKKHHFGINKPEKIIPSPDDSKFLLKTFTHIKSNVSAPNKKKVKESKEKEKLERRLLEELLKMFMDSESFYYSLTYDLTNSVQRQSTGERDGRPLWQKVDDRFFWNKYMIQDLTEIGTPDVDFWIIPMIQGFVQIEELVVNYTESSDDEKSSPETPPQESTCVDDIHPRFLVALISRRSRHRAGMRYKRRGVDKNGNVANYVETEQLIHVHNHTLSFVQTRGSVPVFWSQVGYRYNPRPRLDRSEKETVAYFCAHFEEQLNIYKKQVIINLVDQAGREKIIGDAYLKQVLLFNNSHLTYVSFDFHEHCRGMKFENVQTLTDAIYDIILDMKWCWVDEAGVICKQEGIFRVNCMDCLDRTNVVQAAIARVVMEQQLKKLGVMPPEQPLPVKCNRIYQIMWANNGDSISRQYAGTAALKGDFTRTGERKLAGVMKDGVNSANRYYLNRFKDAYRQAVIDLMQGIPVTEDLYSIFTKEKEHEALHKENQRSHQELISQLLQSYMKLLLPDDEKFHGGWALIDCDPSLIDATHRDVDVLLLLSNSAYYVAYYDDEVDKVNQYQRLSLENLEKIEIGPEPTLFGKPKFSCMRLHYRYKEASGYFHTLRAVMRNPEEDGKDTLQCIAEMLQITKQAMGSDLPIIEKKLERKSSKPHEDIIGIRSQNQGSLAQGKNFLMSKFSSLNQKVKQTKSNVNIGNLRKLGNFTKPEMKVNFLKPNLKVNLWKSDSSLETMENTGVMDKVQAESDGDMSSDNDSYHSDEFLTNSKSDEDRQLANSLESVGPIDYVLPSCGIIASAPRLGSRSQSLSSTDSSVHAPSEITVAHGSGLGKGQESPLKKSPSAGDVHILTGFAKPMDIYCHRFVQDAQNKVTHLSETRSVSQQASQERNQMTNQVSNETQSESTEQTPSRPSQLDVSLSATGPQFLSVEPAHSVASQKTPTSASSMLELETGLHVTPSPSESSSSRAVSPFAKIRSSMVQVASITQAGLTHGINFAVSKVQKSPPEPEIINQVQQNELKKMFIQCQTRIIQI
Chain of UniProt Q15735 (Q15735 whole entry): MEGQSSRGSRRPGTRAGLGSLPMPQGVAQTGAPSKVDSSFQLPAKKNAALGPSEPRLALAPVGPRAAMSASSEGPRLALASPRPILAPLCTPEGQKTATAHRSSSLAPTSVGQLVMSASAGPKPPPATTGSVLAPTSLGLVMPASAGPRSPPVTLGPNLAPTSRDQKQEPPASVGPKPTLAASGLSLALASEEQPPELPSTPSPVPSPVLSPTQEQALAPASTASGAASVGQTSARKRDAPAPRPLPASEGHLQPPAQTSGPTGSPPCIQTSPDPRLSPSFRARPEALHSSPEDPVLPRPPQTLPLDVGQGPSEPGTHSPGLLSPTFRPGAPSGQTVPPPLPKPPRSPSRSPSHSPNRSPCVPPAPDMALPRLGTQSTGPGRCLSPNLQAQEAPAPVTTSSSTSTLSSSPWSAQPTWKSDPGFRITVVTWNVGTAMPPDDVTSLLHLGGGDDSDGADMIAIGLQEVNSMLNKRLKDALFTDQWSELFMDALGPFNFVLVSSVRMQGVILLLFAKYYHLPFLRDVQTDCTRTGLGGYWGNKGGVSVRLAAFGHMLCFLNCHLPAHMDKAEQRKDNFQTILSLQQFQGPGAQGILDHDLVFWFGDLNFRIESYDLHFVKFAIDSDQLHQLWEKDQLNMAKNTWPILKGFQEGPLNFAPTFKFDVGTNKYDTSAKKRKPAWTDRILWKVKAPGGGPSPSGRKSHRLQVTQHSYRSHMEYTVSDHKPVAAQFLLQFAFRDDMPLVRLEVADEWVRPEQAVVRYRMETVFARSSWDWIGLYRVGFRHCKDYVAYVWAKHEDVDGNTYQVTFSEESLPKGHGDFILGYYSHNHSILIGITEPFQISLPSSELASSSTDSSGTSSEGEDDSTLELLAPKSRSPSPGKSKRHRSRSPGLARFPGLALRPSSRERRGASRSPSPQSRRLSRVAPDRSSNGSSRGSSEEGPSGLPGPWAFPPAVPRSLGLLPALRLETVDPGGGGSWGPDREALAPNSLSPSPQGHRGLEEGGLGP
Chain of UniProt Q92551 (Q92551 whole entry, looked up): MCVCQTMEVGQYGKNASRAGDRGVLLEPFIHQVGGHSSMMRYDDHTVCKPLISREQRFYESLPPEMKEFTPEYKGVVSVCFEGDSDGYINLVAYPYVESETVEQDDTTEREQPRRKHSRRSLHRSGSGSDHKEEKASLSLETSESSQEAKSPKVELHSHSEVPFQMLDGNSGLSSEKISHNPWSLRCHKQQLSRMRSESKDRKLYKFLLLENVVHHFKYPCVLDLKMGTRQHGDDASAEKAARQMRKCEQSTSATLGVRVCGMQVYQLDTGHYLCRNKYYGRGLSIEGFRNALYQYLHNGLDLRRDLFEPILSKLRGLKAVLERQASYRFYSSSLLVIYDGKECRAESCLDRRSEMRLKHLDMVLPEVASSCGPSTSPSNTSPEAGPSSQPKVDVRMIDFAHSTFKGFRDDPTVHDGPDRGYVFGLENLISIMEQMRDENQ
Chain of UniProt Q14642 (Q14642 whole entry): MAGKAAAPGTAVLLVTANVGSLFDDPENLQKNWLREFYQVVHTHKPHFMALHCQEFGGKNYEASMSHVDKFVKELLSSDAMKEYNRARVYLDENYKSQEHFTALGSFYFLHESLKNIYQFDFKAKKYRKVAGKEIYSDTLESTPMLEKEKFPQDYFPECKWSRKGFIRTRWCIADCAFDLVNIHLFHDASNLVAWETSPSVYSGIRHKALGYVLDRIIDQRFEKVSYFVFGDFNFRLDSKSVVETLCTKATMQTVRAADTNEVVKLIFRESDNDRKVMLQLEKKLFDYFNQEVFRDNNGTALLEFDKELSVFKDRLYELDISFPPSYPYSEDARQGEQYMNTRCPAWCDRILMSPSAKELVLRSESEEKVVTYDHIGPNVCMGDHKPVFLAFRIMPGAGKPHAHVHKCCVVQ
Chain of UniProt P29218 (P29218 whole entry): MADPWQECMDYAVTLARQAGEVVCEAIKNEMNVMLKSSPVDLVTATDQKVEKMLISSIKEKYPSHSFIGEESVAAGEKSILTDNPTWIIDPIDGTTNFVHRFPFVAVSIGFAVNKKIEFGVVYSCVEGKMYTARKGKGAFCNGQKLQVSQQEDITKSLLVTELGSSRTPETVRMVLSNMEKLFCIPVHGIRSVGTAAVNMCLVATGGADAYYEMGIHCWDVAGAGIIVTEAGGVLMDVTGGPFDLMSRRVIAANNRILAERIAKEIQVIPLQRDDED
Chain of UniProt Q9GZP8 (Q9GZP8 whole entry): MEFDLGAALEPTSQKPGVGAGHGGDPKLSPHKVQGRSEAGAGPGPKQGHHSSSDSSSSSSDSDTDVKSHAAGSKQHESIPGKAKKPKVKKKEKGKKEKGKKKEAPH

Question: Which results are given for ILVBL (UniProt A1L0T0)?
Answer: thermal stability z-score [1]: 0.772; thermal stability z-score [2, 3]: 1.34; thermal stability z-score ([2]; arsenate co-treatment: none): 0.509

Question: Which thermal stability z-score [1] does the source give for IMMT (UniProt Q16891) here?
Answer: The thermal stability z-score was 1.31.

Question: And the thermal stability z-score [2, 3]?
Answer: Its thermal stability z-score is 0.667.

Question: What about the thermal stability z-score ([2]; arsenate co-treatment: none) of the same target?
Answer: Its thermal stability z-score is 0.854.

Question: With IMP3 (UniProt Q9NV31) as the target, how does the thermal stability z-score [1] read?
Answer: Its thermal stability z-score is 0.389.

Question: And the thermal stability z-score [2, 3]?
Answer: The thermal stability z-score was -0.323.

Question: And the thermal stability z-score ([2]; arsenate co-treatment: none)?
Answer: Its thermal stability z-score is -0.228.

Question: Which results are given for IMPA1 (UniProt P29218)?
Answer: thermal stability z-score [1]: 0.0144; thermal stability z-score [2, 3]: 0.595; thermal stability z-score ([2]; arsenate co-treatment: none): 0.776

Question: What does the source list for IMPA2 (UniProt O14732)?
Answer: thermal stability z-score [1]: -0.728; thermal stability z-score [2, 3]: 0.737; thermal stability z-score ([2]; arsenate co-treatment: none): 0.182

Question: IMPACT (UniProt Q9P2X3) was tested. Which thermal stability z-score [1] did it give?
Answer: Its thermal stability z-score is 0.103.

Question: And the thermal stability z-score [2, 3]?
Answer: Its thermal stability z-score is 0.0967.

Question: And the thermal stability z-score ([2]; arsenate co-treatment: none)?
Answer: Its thermal stability z-score is -0.0125.

Question: Which results are given for IMPAD1 (UniProt Q9NX62)?
Answer: thermal stability z-score [1]: -0.352; thermal stability z-score [2, 3]: -0.426; thermal stability z-score ([2]; arsenate co-treatment: none): -0.356

Question: Which thermal stability z-score [1] does the source give for IMPDH1 (UniProt P20839) here?
Answer: Its thermal stability z-score is 1.28.

Question: And the thermal stability z-score [2, 3]?
Answer: Its thermal stability z-score is -0.546.

Question: And the thermal stability z-score ([2]; arsenate co-treatment: none)?
Answer: The thermal stability z-score was -0.319.

Question: Which thermal stability z-score [1] does the source give for IMPDH2 (UniProt P12268) here?
Answer: The thermal stability z-score was 1.25.

Question: And the thermal stability z-score [2, 3]?
Answer: Its thermal stability z-score is -0.759.

Question: What about the thermal stability z-score ([2]; arsenate co-treatment: none) of the same target?
Answer: The thermal stability z-score was -0.205.

Question: With IMUP (UniProt Q9GZP8) as the target, how does the thermal stability z-score [1] read?
Answer: The thermal stability z-score was 0.162.

Question: And the thermal stability z-score [2, 3]?
Answer: Its thermal stability z-score is -0.123.

Question: What about the thermal stability z-score ([2]; arsenate co-treatment: none) of the same target?
Answer: The thermal stability z-score was -0.141.

Question: What does the source list for INADL (UniProt Q8NI35)?
Answer: thermal stability z-score [1]: -0.0383; thermal stability z-score [2, 3]: -0.13; thermal stability z-score ([2]; arsenate co-treatment: none): -0.0923

Question: With INF2 (UniProt Q27J81) as the target, how does the thermal stability z-score [1] read?
Answer: Its thermal stability z-score is 0.0741.

Question: What about the thermal stability z-score [2, 3] of the same target?
Answer: The thermal stability z-score was -0.674.

Question: And the thermal stability z-score ([2]; arsenate co-treatment: none)?
Answer: The thermal stability z-score was -0.257.

Question: With ING1 (UniProt Q9UK53) as the target, how does the thermal stability z-score [1] read?
Answer: Its thermal stability z-score is -1.34.

Question: What about the thermal stability z-score [2, 3] of the same target?
Answer: The thermal stability z-score was 1.11.

Question: And the thermal stability z-score ([2]; arsenate co-treatment: none)?
Answer: The thermal stability z-score was 0.466.

Question: What does the source list for INPP1 (UniProt P49441)?
Answer: thermal stability z-score [1]: -1.9; thermal stability z-score [2, 3]: -1.52; thermal stability z-score ([2]; arsenate co-treatment: none): -1.35

Question: For INPP4A (UniProt Q96PE3), which thermal stability z-score [1] is on record?
Answer: The thermal stability z-score was 0.221.

Question: What about the thermal stability z-score [2, 3] of the same target?
Answer: Its thermal stability z-score is 0.395.

Question: And the thermal stability z-score ([2]; arsenate co-treatment: none)?
Answer: Its thermal stability z-score is 0.319.

Question: For INPP5A (UniProt Q14642), which thermal stability z-score [1] is on record?
Answer: The thermal stability z-score was 0.656.

Question: What about the thermal stability z-score [2, 3] of the same target?
Answer: The thermal stability z-score was -1.28.

Question: And the thermal stability z-score ([2]; arsenate co-treatment: none)?
Answer: Its thermal stability z-score is -0.144.

Question: How did the thermal stability z-score [1] turn out when INPP5B (UniProt P32019) was run?
Answer: The thermal stability z-score was -0.211.

Question: What about the thermal stability z-score [2, 3] of the same target?
Answer: The thermal stability z-score was -0.146.

Question: And the thermal stability z-score ([2]; arsenate co-treatment: none)?
Answer: Its thermal stability z-score is -0.514.

Question: What does the source list for INPP5F (UniProt Q9Y2H2)?
Answer: thermal stability z-score [1]: 0.13; thermal stability z-score [2, 3]: -0.128; thermal stability z-score ([2]; arsenate co-treatment: none): -0.261

Question: For INPP5J (UniProt Q15735), which thermal stability z-score [1] is on record?
Answer: The thermal stability z-score was -0.471.

Question: And the thermal stability z-score [2, 3]?
Answer: Its thermal stability z-score is -0.307.

Question: What about the thermal stability z-score ([2]; arsenate co-treatment: none) of the same target?
Answer: Its thermal stability z-score is -0.456.

Question: INPP5K (UniProt Q9BT40) was tested. Which thermal stability z-score [1] did it give?
Answer: The thermal stability z-score was 0.268.

Question: And the thermal stability z-score [2, 3]?
Answer: The thermal stability z-score was -0.0181.

Question: And the thermal stability z-score ([2]; arsenate co-treatment: none)?
Answer: The thermal stability z-score was 0.225.

Question: For INPPL1 (UniProt O15357), which thermal stability z-score [1] is on record?
Answer: Its thermal stability z-score is 0.0386.

Question: What about the thermal stability z-score [2, 3] of the same target?
Answer: The thermal stability z-score was -0.527.

Question: And the thermal stability z-score ([2]; arsenate co-treatment: none)?
Answer: The thermal stability z-score was -0.154.

Question: How did the thermal stability z-score [1] turn out when INSR (UniProt P06213) was run?
Answer: The thermal stability z-score was 0.639.

Question: What about the thermal stability z-score [2, 3] of the same target?
Answer: Its thermal stability z-score is 0.408.

Question: And the thermal stability z-score ([2]; arsenate co-treatment: none)?
Answer: Its thermal stability z-score is 0.683.

Question: What does the source list for INTS3 (UniProt Q68E01)?
Answer: thermal stability z-score [1]: 0.26; thermal stability z-score [2, 3]: -0.121; thermal stability z-score ([2]; arsenate co-treatment: none): -0.0169

Question: What does the source list for INTS4 (UniProt Q96HW7)?
Answer: thermal stability z-score [1]: -0.0059; thermal stability z-score [2, 3]: 1.08; thermal stability z-score ([2]; arsenate co-treatment: none): 1.34

Question: Which results are given for INTS7 (UniProt Q9NVH2)?
Answer: thermal stability z-score [1]: -0.0595; thermal stability z-score [2, 3]: 0.874; thermal stability z-score ([2]; arsenate co-treatment: none): -0.103

Question: How did the thermal stability z-score [1] turn out when IP6K1 (UniProt Q92551) was run?
Answer: The thermal stability z-score was -0.179.

Question: And the thermal stability z-score [2, 3]?
Answer: Its thermal stability z-score is 0.327.

Question: And the thermal stability z-score ([2]; arsenate co-treatment: none)?
Answer: Its thermal stability z-score is -0.471.

Question: How did the thermal stability z-score [1] turn out when IPO4 (UniProt Q8TEX9) was run?
Answer: Its thermal stability z-score is 0.0408.

Question: And the thermal stability z-score [2, 3]?
Answer: Its thermal stability z-score is -0.55.

Question: What about the thermal stability z-score ([2]; arsenate co-treatment: none) of the same target?
Answer: Its thermal stability z-score is -0.394.

Question: Which results are given for IPO5 (UniProt O00410)?
Answer: thermal stability z-score [1]: -0.498; thermal stability z-score [2, 3]: 0.21; thermal stability z-score ([2]; arsenate co-treatment: none): -0.103

Question: What does the source list for IPO7 (UniProt O95373)?
Answer: thermal stability z-score [1]: -0.418; thermal stability z-score [2, 3]: 2.63; thermal stability z-score ([2]; arsenate co-treatment: none): 0.4

Question: What does the source list for IPO8 (UniProt O15397)?
Answer: thermal stability z-score [1]: 0.756; thermal stability z-score [2, 3]: -0.327; thermal stability z-score ([2]; arsenate co-treatment: none): -0.557

Question: Which thermal stability z-score [1] does the source give for IPO9 (UniProt Q96P70) here?
Answer: The thermal stability z-score was 0.165.

Question: What about the thermal stability z-score [2, 3] of the same target?
Answer: Its thermal stability z-score is 0.178.

Question: And the thermal stability z-score ([2]; arsenate co-treatment: none)?
Answer: Its thermal stability z-score is -0.179.

Question: Which thermal stability z-score [1] does the source give for IPO11 (UniProt Q9UI26) here?
Answer: Its thermal stability z-score is -0.0713.

Question: And the thermal stability z-score [2, 3]?
Answer: Its thermal stability z-score is -0.322.

Question: And the thermal stability z-score ([2]; arsenate co-treatment: none)?
Answer: Its thermal stability z-score is -0.104.

Question: What does the source list for IPO13 (UniProt O94829)?
Answer: thermal stability z-score [1]: -0.159; thermal stability z-score [2, 3]: -0.112; thermal stability z-score ([2]; arsenate co-treatment: none): -0.218

Question: For IPPK (UniProt Q9H8X2), which thermal stability z-score [1] is on record?
Answer: The thermal stability z-score was 0.0883.

Question: And the thermal stability z-score [2, 3]?
Answer: The thermal stability z-score was 0.199.

Question: What about the thermal stability z-score ([2]; arsenate co-treatment: none) of the same target?
Answer: Its thermal stability z-score is 0.487.

Question: With IQGAP1 (UniProt P46940) as the target, how does the thermal stability z-score [1] read?
Answer: Its thermal stability z-score is -1.08.

Question: What about the thermal stability z-score [2, 3] of the same target?
Answer: Its thermal stability z-score is 0.776.

Question: And the thermal stability z-score ([2]; arsenate co-treatment: none)?
Answer: The thermal stability z-score was 0.818.
